Test results as given in ChEMBL document CHEMBL3044839, “Bisdesmosidic saponins from Securidaca longepedunculata roots: evaluation of deterrency and toxicity to Coleopteran storage pests” (2009).
Calls of active or inactive are those of the source. The calls are words filed in the database; no cut-off is given here.

Key:
Sitophilus zeamais [1] = assay: Insecticidal activity against adult Sitophilus zeamais in compound pretreated stored maize commodities assessed as mortality at 2.5 mg measured after 2 weeks; assay type: functional, organism-based
Callosobruchus maculatus [2] = assay: Insecticidal activity against Callosobruchus maculatus in compound pretreated stored cowpea commodities assessed as decrease in number of adults emerging in F1 generation at 2.5 mg; assay type: functional, organism-based
Callosobruchus maculatus [3] = assay: Insecticidal activity against Callosobruchus maculatus in compound pretreated stored cowpea commodities assessed as decrease in egg hatching on the surface of seeds at 2.5 mg; assay type: functional, organism-based
Sitophilus zeamais [4] = assay: Insecticidal activity against adult Sitophilus zeamais in compound pretreated stored maize commodities assessed as decrease in number of damaged seeds at 2.5 mg measured after 2 weeks (reference value: >95%); assay type: functional; design: scale not given: the % may be the effect or the level left
Callosobruchus maculatus [5] = assay: Insecticidal activity against adult Callosobruchus maculatus in compound pretreated stored cowpea commodities assessed as decrease in number of oviposted eggs on the surface of seeds at 2.5 mg by choice bioassay; assay type: functional, organism-based

## COc1ccc(C=CC(=O)O[C@@H]2[C@H](O)[C@@H](O[C@@H]3O[C@@H](C)[C@H](O[C@@H]4OC[C@@H](O)[C@H](O[C@@H]5OC[C@H](O)[C@H](O)[C@H]5O)[C@H]4O)[C@@H](O[C@@H]4OC[C@](O)(CO)[C@H]4O)[C@H]3O)[C@H](OC(=O)[C@]34CCC(C)(C)C[C@H]3C3=CC[C@@H]5[C@@]6(C)C[C@H](O)[C@H](O[C@@H]7O[C@H](CO)[C@@H](O)[C@H](O)[C@H]7O)[C@@](C)(C(=O)O)[C@@H]6CC[C@@]5(C)[C@]3(C)CC4)O[C@@H]2C)cc1
Sitophilus zeamais [1]
  mortality: Active
Callosobruchus maculatus [2]
  Activity: Active
Callosobruchus maculatus [3]
  Activity: Active
Sitophilus zeamais [4]
  Activity: <35%
Callosobruchus maculatus [5]
  Activity: Active
